From article PMC12264554, “Application of preclinical absorption, distribution, metabolism, elimination in vitro techniques for the characterization and compound library optimization of novel antibiotic gallium salophen” (Drug Metabolism and Disposition, 2025)

How the values were obtained:
[1] = Caco-2 permeability screening; format: in vitro ADME; conditions: human, Caco-2, pH 7.4, known drug standards
Description: (§1) Caco-2 cells were received from American Type Culture Collection and certified mycoplasma free. Cells were seeded on transwell plates (CoStar, growth area 0.33 cm^2/well, polycarbonate membrane, 0.33 μm pore size) between passage 20 and 27 and then analyzed between 21 and 25 days after wells were seeded to ensure enterocyte-like differentiation. Before assessing permeability, cells were washed once with Hank’s Balanced Salt Solution buffer, pH 7.4, and then incubated at 37 °C for 30 minutes. Transepithelial electrical resistance (TEER) was measured after equilibration before the experiment using an epithelial volt-ohmmeter (EVOM, World Precision Instruments), and cells were used if TEER > 250 Ω × cm^2. Cells were dosed to measure permeability from basolateral and apical sides at a concentration of 20 μM of test compound and 50 μM of Lucifer yellow. Lucifer yellow was used as a “zero permeability” marker to monitor the integrity of cell barrier. Samples were taken at 0 and 60 minutes from the donor side, and samples were taken at 30 and 60 minutes from the receiver side; media was replenished after the 30-minute sample was taken from both chambers. A calibration curve was prepared by serial dilution using the dosing solution in a 1:5 dilution. […] Samples were prepared for LC-MS/MS analysis by taking 100 μL of sample, adding 1 μM internal standard (GaSal-4 or GaSal-5), and crashing with 400 μL of methanol. Samples were centrifuged at 3000 rpm at 4 °C for 30 minutes, 200 μL of supernatant was transferred to a new plate, and 100 μL of water was added to each sample. Samples were vortexed and analyzed by LC-MS/MS as described earlier. […] To preliminarily evaluate organic cation transporter 1 (OCT1) or P-glycoprotein (P-gp)-dependent transport, transport studies were conducted with and without a 1 μM “inhibitor cocktail” alongside GaSal. […] The Papp for basolateral to apical, Papp apical to basolateral, and efflux ratio were reported for each compound. In order to calculate Papp, the concentration in the sampled time point was determined from the calibration curve and then converted to μg based on the volume of the chamber (0.2 mL for apical, 1.0 mL for basolateral). […] The calculation of Papp was determined using eq. […] Data are presented as the average ± SEM for each compound analyzed as n = 3 on 2 different days with 2 different cell line passages, for n = 6 total. GaSal is n = 3 on 3 different cell line passages since this was used as a test compound for the inhibition cocktail experiments.

Caco-2 cells = assay: Caco-2 permeability screening; format: in vitro ADME; conditions: Caco-2
Description: as §1

PL proteins = conditions: 2012, cited from earlier work; for PL protein bound: ref Pike and Skuterud, 1982, Zhang et al
[2] = Microsomal clearance assay; format: in vitro ADME, rat; conditions: 2 μM, rat liver microsomes
Description: Library compounds were tested in triplicate at a concentration of 2 μM and incubated in 0.1 M potassium phosphate buffer containing 12 mM MgCl2 and 8 mM NADPH at pH 7.4 with either 0.5 mg/mL of Sprague–Dawley liver microsomes (Invitrogen). Samples were incubated for 0, 3, 7, 12, 20, and 30 minutes. At the designated time point, the incubation reaction was stopped by adding 100 μL of ACN containing 1 μM of either GaSal-4 or GaSal-5 as the internal standards. […] 7-Ethoxycoumarin (Sigma) was used as a positive control in this experiment. Intrinsic clearance (CLint) was calculated using eq. 2:(2) CLint=0.693/InVitroT1/2∗IncubationVolume/mgofmicrosomes∗45mgmicrosomes/gramofliver∗45gramsliver/kgofbodyweight
The average CLint ± SEM was determined for each compound for 2 replicates per time point.

S9 clearance assay = format: in vitro ADME; conditions: Sprague-Dawley, pH 7.4, S9 rat liver fraction
Description: Select library compounds were tested in triplicate at a concentration of 2 μM and incubated in 0.1 M potassium phosphate buffer containing 12 mM MgCl2 and 8 mM NADPH at pH 7.4 with 2.5 mg/mL of Sprague–Dawley S9 (Invitrogen). Incubations contained a final concentration of 2.5 mM UDP glucuronic acid, 0.10 mM adenosine 3’-phosphate 5’-phosphosulfate, 0.5 mM acetyl CoA, and 50 μg/mg protein alamethicin. All co-factors were from Sigma. Samples were incubated for 0, 3, 7, 12, 20, and 30 minutes. At the designated time point, the incubation reaction was stopped by adding 100 μL of ACN containing 1 μM of either GaSal-4 or GaSal-5 as the internal standard. […] A hundred microliter of supernatant was taken for LC-MS/MS analysis. 7-Ethoxycoumarin (Sigma) was used as a positive control in this experiment. Clearance was calculated according to eq. 3:(3) CLint=0.693/InVitroT1/2∗IncubationVolume/mgofS9∗165mgS9/gramofliver∗45gramsliver/kgofbodyweight
The average CLint ± SEM was determined for each compound for 3 replicates per time point.

In the case of `CN(Cc1cnc2nc(N)nc(N)c2n1)c1ccc(C(=O)N[C@@H](CCC(=O)O)C(=O)O)cc1` [Methotrexate, reference compound], the efflux ratio at 60 min, 20 μM ([1]; read-out: Efflux Ratio B to A/ A to B) is reported as 1.46, the Papp A→B at 60 min, 20 μM ([1]; read-out: Papp Apical to Basolateral) is reported as 0.02 ± 0.001 ×10⁻⁶ cm/s and the Papp B→A at 60 min, 20 μM ([1]; read-out: Papp Basolateral to Apical) is reported as 0.03 ± 0.01 ×10⁻⁶ cm/s. For the same compound, the “Permeability Ranking” value (Caco-2 cells) was “Not Permeable” and the expected protein binding (PL proteins; control compounds, ref Zhang et al) was 50%.

In the case of `CN(C)CCC=C1c2ccccc2CCc2ccccc21` [amitriptyline], the PL protein bound (PL proteins) is listed as > 90%.

With `CCOc1ccc2ccc(=O)oc2c1` [7-ethoxycoumarin, 7-Ethoxycoumarin, reference compound] the “concentration change over 30 minutes in microsomes” value [2] was “metabolized by the microsomes”, the half-life at 2 µM (S9 clearance assay; average ± SEM n = 3) was 25.2 ± 7.8 min and the CLint scaled at 2 μM (S9 clearance assay; average ± SEM n = 3, read-out: Predicted CLint (converted)) was 190 mL/min/kg.

For `CN(C)CCCN1c2ccccc2CCc2ccccc21` [imipramine], the PL protein bound (PL proteins) is listed as > 90%.
